Assay [1] deals with acetylcholine-induced bronchospasm. The experiment in a line: protective action against acetylcholine-induced bronchospasm on the conscious guinea-pig. The following applies: Cavia porcellus, 0.5 h; verum, oral, 100 μmol/kg, 30 minutes after administration; protected = latency period at least three times; read-out: Number of animals protected/number of animals used (converted). Format: in vivo. The protocol:
The bronchospasmolytic action was additionally tested on the model of "Protective action against acetylcholine-induced bronchospasm on the conscious guinea-pig":
Guinea-pigs (250-350 g) are exposed in a closed Plexiglas cylinder (volume 5 l) to an acetylcholine mist (0.06% in 0.9% sodium chloride solution; ultrasonic mister Heyer Use 77) twice before administration of the substance at an interval of 20 minutes, and 30 minutes after administration of the substance. The time from the start of misting to the onset of clear respiratory exertion (under certain circumstances hypoxic convulsions in the lateral position) is measured and defined as the latency period. A prolonging of the latency period after administration of the substance to at least three times the average latency period before administration of the substance is regarded as a protective action, and the number of protected animals in the group is stated. The test substances are administered orally by means of a stomach tube (dose 100 μmol/kg, volume 1 ml/kg, suspending agent 4% Methocel suspension in 0.9% sodium chloride solution).
The test substance is administered perorally by means of a stomach tube (standard dose 100 μmol, volume 1 ml 4% Methocel suspension in 0.9% sodium chloride solution/kg). After 30 minutes, the animals are exposed to the acetylcholine mist again and the latency periods are measured. Prolonging of the latency period to at least three times the length is regarded as a protective action.

Assay [2] concerns histamine-induced bronchospasm. The experiment in a line: histamine-induced bronchospasm on the anaesthetized guinea-pig. Format: in vivo. Here is the method:
The bronchospasmolytic action was furthermore determined on the model of "histamine-induced bronchospasm on the anaesthetized guinea-pig":
In this model, pharmacodynamic and toxic effects on internal sensitive receptors, on the respiration and on the cardiovascular system of guinea-pigs are recorded simultaneously [U. Kilian, E. Muller, E. Ch.
A histamine spasm before administration of the substance was compared with several histamine spasms after administration of the substance. The test substances were administered intravenously (i.v.) and/or intrajejunally (i.j.).

The subject of assay [3] is PDE IV. Briefly: inhibition of PDE IV from the canine trachea. Format: biochemical. Conditions: for [IC50]theophylline / [IC50]substance: PDE IV canine trachea, quotient of IC50 values, theophylline = 1; for -log[IC50] PDE IV canine trachea: cAMP 0.5 μmol/l, 37° C., 20 minutes. From the text:
(§1) The inhibition of phosphodiesterases of classes III (PDE III=high-affinity cAMP-PDE which can be inhibited by cGMP) and IV (PDE IV=high-affinity cAMP-PDE which cannot be inhibited by cGMP, Rolipram-sensitive) is regarded as being particularly conclusive for a bronchospasmolytic and/or antiinflammatory action which may be expected [H. Hidaka et al., Adv. Cycl. Nucl. Res. 13, 145 (1984); Tips 5, 237 (1984); R. Weishaar et al., J. Med. Chem. 28, 537 (1985); S. A. Harrison et al., Molec. Pharmac. 29, 506 (1986); J. Klein-Tebbe et al., Allergologie 12, 12 (1989); C. Schudt et al., Allergologie 12, 12 (1989)].
(§2) The PDE inhibition of the compounds according to the invention was therefore determined on a PDE III isolated from human platelets and PDE IV isolated from human neutrophilic polymorphonuclear cells (PMNs) and from the canine trachea. The phosphodiesterases III and IV are isolated by chromatography by the method of Polson et al., Biochem. Pharmacol. 31, 3403-3406 (1982).
(§3) The substances are dissolved in DMSO and diluted further. From a series of solutions diluted up to a hundred-fold, 2.1 μl portions are taken and 212 μl reaction mixture are added. The reaction mixture contains Hepes (100 mmol/l), DTE (5 mmol/l), MgCl2 (5 mmol/l), CaCl2 (10 μmol/l), BSA fraction V 0.5 mg/ml, cAMP 0.5 μmol/l, 2,8-^3 H-cAMP 250,000 cpm/ml (0.3 μCi/ml, s.a. 33.5 μCi/mmol) and SV (snake venom) (25 μg/212 μl test batch).
(§4) The reaction is started by addition of 10 μl PDE to the reaction mixture and to the substance batch. The mixtures are then incubated at 37° C. for 20 minutes. The reaction is stopped by heating at 95° C. for 45 seconds. After the samples have cooled, the SV solution is added, the 5-AMP formed being cleaved. After incubation for 30 minutes at 37° C., this reaction is stopped by addition of 1 ml anion exchanger suspension. The cAMP which remains is thereby bonded. The adenosine formed remains in the supernatant after centrifugation and can be measured in an aliquot by the radioactivity contained therein.

Assay [4] deals with tracheal ring chain of the guinea-pig. Briefly: bronchospasmolytic action on the tracheal ring chain of the guinea-pig in vitro (relaxation of stable tonic spontaneous contraction). Format: cell-based. The following applies: for EC50: Cavia porcellus, EC50 in mol/l, 50% of the maximum relaxation achievable with (-)isoprenaline 10^-6 mol/l, spontaneous contraction, 37° C.; for [EC50]theophylline / [EC50]substance: quotient of EC50 values, theophylline = 1. The protocol: (§5) The bronchospasmolytic action of the compounds on the tracheal ring chain of the guinea-pig was tested in vitro as follows: Four parallel tracheal ring chains, each consisting of 6 individual rings, of the guinea-pig (female and male, 430-600 g), in an organ bath [5 ml, Krebs-Henseleit solution with addition of phentolamine (10^-5 mol/l), 37° C., pretension of the organs 2 g, gassing with carbogen] develop a stable, tonic spontaneous contraction after about 20 to 30 minutes. Relaxation can be brought about on these permanently contracted organs under isometric measurement conditions by application of the test substance in a cumulatively semi-logarithmically increasing concentration (e.g. 1×10^-6 +2×10^-6 +7×10^-6 +2×10^-5etc. mol/l), a constant relaxation response being awaited after each individual dose of the test substance before the next higher concentration is applied. A complete dose/effect curve of the test substance is thus obtained over a period of 20 to 30 minutes. The particular relaxation is expressed as the percentage fraction of the maximum relaxation which can be achieved by addition of (-)isoprenaline (10^-6 mol/l).

In assay [5] the test system is PDE IV. The experiment in a line: inhibition of PDE IV from human neutrophilic polymorphonuclear cells (PMNs). Conditions: for [IC50]theophylline / [IC50]substance: PDE IV human PMNs, quotient of IC50 values, theophylline = 1; for -log[IC50] PDE IV PNMs: human neutrophilic polymorphonuclear cells, cAMP 0.5 μmol/l, 37° C., 20 minutes. The class given is biochemical.
Excerpt: as §1, §2, §3, §4

The subject of assay [6] is trachea (tracheal ring chain of the guinea-pig). Briefly: trachea-relaxing action: relaxation of contractions generated by histamine, carbachol, prostaglandin, ovalbumin and leukotriene. The class given is cell-based. The following applies: Cavia porcellus; read-out: trachea-relaxing action, contraction by OA (converted). The protocol: as §5, with “mol/l). The concentration of the test substance which causes 50% of the maximum relaxation which can be achieved serves as a measure of the bronchodilatory activity, expressed by the negative logarithm of the EC50 mol/l: -log[EC50 ].” for “mol/l).”
The trachea-relaxing action of compounds 3 and 4 was additionally tested by relaxation of the contractions generated by histamine (His), carbachol (CC), prostaglandin (PGF2alpha), ovalbumin (OA) and leukotriene (LTC4).

A further assay deals with T1, PDE III (Homo sapiens, UniProt Q14432).
T1 construct: PDE III isolated from human platelets; from tissue; host or cells: human platelets
The experiment in a line: inhibition of PDE III isolated from human platelets. The following applies: for [IC50]theophylline / [IC50]substance: PDE III, quotient of IC50 values, theophylline = 1; for IC50: human platelets, cAMP 0.5 μmol/l, 37° C., 20 minutes, read-out: -log[IC50] PDE III (converted). Format: biochemical.
Excerpt: as §1, §2, §3, §4

Setting [7] is: i.j. (intrajejunal), 20 μmol/kg.
Setting [8] is: i.j. (intrajejunal), 60 μmol/kg.

As usually defined, the IC50 is the point on the concentration scale where inhibition reaches its midpoint.

T1 sequence (Q14432 whole entry): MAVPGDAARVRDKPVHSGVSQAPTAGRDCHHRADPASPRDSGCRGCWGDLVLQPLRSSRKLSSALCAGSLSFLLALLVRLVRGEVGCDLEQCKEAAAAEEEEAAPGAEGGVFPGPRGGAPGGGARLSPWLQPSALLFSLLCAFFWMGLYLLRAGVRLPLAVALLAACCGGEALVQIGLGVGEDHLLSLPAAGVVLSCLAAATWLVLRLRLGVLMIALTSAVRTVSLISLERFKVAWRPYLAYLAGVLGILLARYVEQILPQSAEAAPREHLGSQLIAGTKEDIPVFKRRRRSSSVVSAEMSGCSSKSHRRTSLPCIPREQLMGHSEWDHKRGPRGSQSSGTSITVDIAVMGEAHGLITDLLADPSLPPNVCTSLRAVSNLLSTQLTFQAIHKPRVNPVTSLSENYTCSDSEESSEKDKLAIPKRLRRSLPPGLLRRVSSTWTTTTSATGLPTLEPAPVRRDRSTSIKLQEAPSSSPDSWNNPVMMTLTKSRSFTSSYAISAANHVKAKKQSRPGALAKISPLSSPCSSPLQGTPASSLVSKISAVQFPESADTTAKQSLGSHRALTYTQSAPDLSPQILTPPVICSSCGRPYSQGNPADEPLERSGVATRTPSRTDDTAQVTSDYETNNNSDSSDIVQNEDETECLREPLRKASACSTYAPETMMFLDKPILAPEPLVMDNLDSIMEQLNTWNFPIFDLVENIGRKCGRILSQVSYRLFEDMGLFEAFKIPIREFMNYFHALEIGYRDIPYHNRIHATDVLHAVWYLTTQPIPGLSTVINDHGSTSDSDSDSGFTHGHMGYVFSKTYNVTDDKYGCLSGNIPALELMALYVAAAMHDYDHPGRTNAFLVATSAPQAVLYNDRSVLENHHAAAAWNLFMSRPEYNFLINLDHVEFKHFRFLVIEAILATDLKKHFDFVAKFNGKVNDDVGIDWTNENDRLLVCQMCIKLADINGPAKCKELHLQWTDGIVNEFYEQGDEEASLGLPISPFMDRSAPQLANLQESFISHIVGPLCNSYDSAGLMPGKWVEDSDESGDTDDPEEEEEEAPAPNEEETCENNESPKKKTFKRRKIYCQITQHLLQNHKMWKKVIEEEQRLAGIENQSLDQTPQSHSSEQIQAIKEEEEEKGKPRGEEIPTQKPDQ

Consider `CCOc1cc(-c2ccc(NC#N)nn2)ccc1OC(F)F` [Compound 12, 3-Cyanamino-6-(4-difluoromethoxy-3-ethoxyphenyl)pyridazine], for which, in assay [1], the responders at 100 µmol/kg was 70%. In addition, the “Average percentage bronchospasmolytic action 0-1 h p. appl., % inhibition of the histamine-induced decrease in Vmaxe” value in assay [2] (i.v., 20 μmol/kg) is 50%. Moreover, in the assay on PDE IV [3], the “[IC50]theophylline / [IC50]substance” value was 97.8 and the “-log[IC50] PDE IV canine trachea” value was determined as 5.80. For the same compound, in assay [4], the EC50 is 2450 nM and the “[EC50]theophylline / [EC50]substance” value worked out at 55.0.

As to `CCOc1ccc(-c2ccc(NC#N)nn2)cc1OCC(C)C` [Compound 13, 3-Cyanamino-6-[4-ethoxy-3-(2-methylpropoxy)phenyl]pyridazine], in assay [1], the responders at 100 µmol/kg is 65%. In addition, the “Average percentage bronchospasmolytic action 0-1 h p. appl., % inhibition of the histamine-induced decrease in Vmaxe” value in assay [2] (i.v., 20 μmol/kg) was 28%. For the same compound, in assay [4], the EC50 was 537 nM and the “[EC50]theophylline / [EC50]substance” value is on record as 251. Further, in the assay with PDE IV [5], the “[IC50]theophylline / [IC50]substance” value is recorded as 263 and the “-log[IC50] PDE IV PNMs” value was 6.18.

Turning to `COc1ccc(-c2ccc(NC#N)nn2)cc1OCC(C)C` [Compound 4, 3-Cyanamino-6-[4-methoxy-3-(2-methylpropoxy)phenyl]pyridazine], the responders at 100 µmol/kg in assay [1] is 85%. The EC50 in assay [6] was 398 nM; in assay [4], 112 nM. The “[IC50]theophylline / [IC50]substance” value at PDE III was 26.9; in the assay on PDE IV [3], 355; in the assay on PDE IV [5], 357. Further, the IC50 at PDE III was 6030 nM. Also, the “Average percentage bronchospasmolytic action 0-1 h p. appl., % inhibition of the histamine-induced decrease in Vmaxe” value in assay [2] (setting [7]) is 39%; in assay [2] (setting [8]), 60%; in assay [2] (i.v., 20 μmol/kg), 37%; in assay [2] (i.v., 60 μmol/kg), 87%. The “-log[IC50] PDE IV canine trachea” value in the assay with PDE IV [3] is recorded as 6.36. Moreover, the “[EC50]theophylline / [EC50]substance” value in assay [4] is 1203. Further, the “-log[IC50] PDE IV PNMs” value in the assay with PDE IV [5] is reported as 6.33.

Regarding `Cn1c(=O)c2[nH]cnc2n(C)c1=O` [Theophylline, theophylline, reference compound], in assay [1], the responders at 100 µmol/kg is 30%. In addition, in assay [6], the EC50 was 288000 nM. The “Average percentage bronchospasmolytic action 0-1 h p. appl., % inhibition of the histamine-induced decrease in Vmaxe” value in assay [2] (setting [7]) worked out at 11%; in assay [2] (setting [8]) it was 37%; in assay [2] (i.j. (intrajejunal), 100 μmol/kg), 45%; in assay [2] (i.v., 20 μmol/kg), 13%; in assay [2] (i.v., 60 μmol/kg), 25%; in assay [2] (i.v., 100 μmol/kg), 34%. In addition, in the assay on PDE IV [3], the “-log[IC50] PDE IV canine trachea” value is on record as 3.81. For the same compound, in the assay with PDE IV [5], the “-log[IC50] PDE IV PNMs” value is listed as 3.76.

For `COc1ccc(-c2ccc(NC#N)nn2)cc1OC(C)C` [Compound 3, 3-Cyanamino-6-[4-methoxy-3-(1-methylethoxy)phenyl]pyridazine], the responders at 100 µmol/kg in assay [1] was 70%. The EC50 in assay [6] was 646 nM; in assay [4] it was 417 nM. Further, the “[IC50]theophylline / [IC50]substance” value was found to be 30.8 at PDE III, 82.2 in the assay on PDE IV [3] and 117 in the assay with PDE IV [5]. Moreover, at PDE III, the IC50 is 5250 nM. Moreover, the “Average percentage bronchospasmolytic action 0-1 h p. appl., % inhibition of the histamine-induced decrease in Vmaxe” value was 29% in assay [2] (setting [7]); 65% in assay [2] (setting [8]); 28% in assay [2] (i.v., 20 μmol/kg); 65% in assay [2] (i.v., 60 μmol/kg). Further, in the assay with PDE IV [3], the “-log[IC50] PDE IV canine trachea” value is recorded as 5.75. Besides, in assay [4], the “[EC50]theophylline / [EC50]substance” value is recorded as 324. Also, the “-log[IC50] PDE IV PNMs” value in the assay with PDE IV [5] is given as 5.82.

On to `CC(C)Oc1cc(-c2ccc(NC#N)nn2)ccc1OC(F)F` [Compound 16, 3-Cyanamino-6-[4-difluoromethoxy-3-(1-methylethoxy)phenyl]pyridazine], for which the responders at 100 µmol/kg in assay [1] is 50%. In assay [4], the EC50 was 661 nM and the “[EC50]theophylline / [EC50]substance” value stood at 204. In addition, in the assay with PDE IV [5], the “[IC50]theophylline / [IC50]substance” value was 550 and the “-log[IC50] PDE IV PNMs” value is 6.50.
